From ChEMBL document CHEMBL1933061, “Discovery of a novel class of aldol-derived 1,2,3-triazoles: potent and selective inhibitors of human cytochrome P450 19A1 (aromatase)” (Bioorg Med Chem Lett, 2012)

Legend:
Aromatase [1] = molecular target: T1, Aromatase (Homo sapiens, UniProt P11511); test: Inhibition of human recombinant aromatase assessed as conversion of O-dibenzylfluorescein benzyl ester substrate to fluorescein byproduct by fluorometric assay; details: for inhibition (INH): human
T1 sequence (P11511 whole entry): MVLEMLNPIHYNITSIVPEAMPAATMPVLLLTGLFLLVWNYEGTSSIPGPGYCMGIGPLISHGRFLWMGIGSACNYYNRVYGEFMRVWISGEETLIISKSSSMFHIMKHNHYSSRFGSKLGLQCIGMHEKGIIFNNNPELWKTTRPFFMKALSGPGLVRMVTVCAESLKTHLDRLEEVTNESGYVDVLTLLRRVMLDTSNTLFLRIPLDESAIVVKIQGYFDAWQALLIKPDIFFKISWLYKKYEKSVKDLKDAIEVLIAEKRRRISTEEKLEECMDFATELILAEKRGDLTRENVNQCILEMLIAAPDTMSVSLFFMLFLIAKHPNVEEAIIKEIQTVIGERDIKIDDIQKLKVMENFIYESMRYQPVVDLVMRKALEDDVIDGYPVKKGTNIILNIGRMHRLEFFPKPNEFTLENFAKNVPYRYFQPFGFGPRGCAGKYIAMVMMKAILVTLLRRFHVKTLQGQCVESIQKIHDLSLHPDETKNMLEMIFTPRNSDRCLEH

Cytochrome P450 3A4 = Cytochrome P450 3A4 (Homo sapiens, UniProt P08684); test: Inhibition of CYP3A4 at 10 uM; format: ADME
Sequence of Cytochrome P450 3A4 (P08684 whole entry): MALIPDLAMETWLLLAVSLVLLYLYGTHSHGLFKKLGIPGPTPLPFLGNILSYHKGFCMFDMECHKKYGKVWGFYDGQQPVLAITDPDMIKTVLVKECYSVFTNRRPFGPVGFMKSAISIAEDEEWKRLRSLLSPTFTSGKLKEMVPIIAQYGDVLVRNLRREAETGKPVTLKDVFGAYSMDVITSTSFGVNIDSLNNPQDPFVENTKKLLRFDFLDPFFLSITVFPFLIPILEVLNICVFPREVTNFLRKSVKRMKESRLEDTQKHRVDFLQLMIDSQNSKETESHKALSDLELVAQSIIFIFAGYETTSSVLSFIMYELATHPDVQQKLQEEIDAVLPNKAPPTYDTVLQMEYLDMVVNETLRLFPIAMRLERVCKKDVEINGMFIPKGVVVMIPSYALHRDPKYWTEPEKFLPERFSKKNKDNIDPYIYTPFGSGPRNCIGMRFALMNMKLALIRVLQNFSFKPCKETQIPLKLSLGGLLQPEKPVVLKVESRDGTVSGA

Cytochrome P450 1A1 = molecular target: T2, Cytochrome P450 1A1 (Homo sapiens, UniProt P04798); test: Inhibition of CYP1A1; format: ADME
T2 sequence (P04798 whole entry): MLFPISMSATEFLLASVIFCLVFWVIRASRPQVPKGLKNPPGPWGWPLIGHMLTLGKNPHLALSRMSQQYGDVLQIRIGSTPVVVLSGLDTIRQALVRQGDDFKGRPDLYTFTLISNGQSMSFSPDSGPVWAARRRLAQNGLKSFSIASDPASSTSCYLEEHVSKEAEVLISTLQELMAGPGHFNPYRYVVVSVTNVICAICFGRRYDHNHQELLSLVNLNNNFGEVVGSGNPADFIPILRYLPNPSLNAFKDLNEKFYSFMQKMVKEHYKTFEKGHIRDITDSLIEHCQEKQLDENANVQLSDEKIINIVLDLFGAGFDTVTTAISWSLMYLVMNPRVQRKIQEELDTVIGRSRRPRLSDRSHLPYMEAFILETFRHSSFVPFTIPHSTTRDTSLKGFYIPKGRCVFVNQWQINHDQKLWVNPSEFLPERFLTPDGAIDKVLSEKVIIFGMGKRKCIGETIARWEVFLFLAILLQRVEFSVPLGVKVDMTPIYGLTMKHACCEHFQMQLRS

Aromatase [2] = molecular target: T1, Aromatase; test: Inhibition of human recombinant aromatase assessed as conversion of O-dibenzylfluorescein benzyl ester substrate to fluorescein byproduct at 10 uM by fluorometric assay
Cytochrome P450 2D6 = Cytochrome P450 2D6 (Homo sapiens, UniProt P10635); test: Inhibition of CYP2D6; format: ADME
Sequence of Cytochrome P450 2D6 (P10635 whole entry): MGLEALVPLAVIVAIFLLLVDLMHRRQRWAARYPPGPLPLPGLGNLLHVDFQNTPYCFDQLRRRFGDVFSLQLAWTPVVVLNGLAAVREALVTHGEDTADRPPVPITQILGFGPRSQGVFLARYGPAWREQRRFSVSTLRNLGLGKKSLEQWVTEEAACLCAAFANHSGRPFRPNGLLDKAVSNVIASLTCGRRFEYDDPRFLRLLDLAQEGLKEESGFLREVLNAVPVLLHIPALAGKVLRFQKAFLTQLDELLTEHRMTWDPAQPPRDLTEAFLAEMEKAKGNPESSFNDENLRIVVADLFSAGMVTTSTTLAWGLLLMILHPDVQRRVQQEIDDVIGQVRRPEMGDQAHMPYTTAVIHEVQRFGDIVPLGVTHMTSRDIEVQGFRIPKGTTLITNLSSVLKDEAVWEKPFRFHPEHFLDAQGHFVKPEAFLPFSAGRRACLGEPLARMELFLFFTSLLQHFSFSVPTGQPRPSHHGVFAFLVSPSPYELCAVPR

Ki (Aromatase [1]) [µM]	inhibition (INH) (Cytochrome P450 3A4)	inhibition (INH) (Aromatase [2])	SMILES	other results
1	Not Active	–	O=C(c1ccccc1)C(Cn1ccnn1)c1ccccc1 (stereo unspecified)	Ki (Cytochrome P450 1A1): 5.37 µM
–	–	Not Active	COCO[C@@H](c1ccccc1)[C@@H](CN=[N+]=[N-])c1ccccc1 (relative stereo)	inhibition (INH) (Aromatase [1]): Not Active
–	–	Not Active	COCO[C@@H](c1ccccc1)[C@@H](Cn1cc([Si](C)(C)C)nn1)c1ccccc1 (relative stereo)	inhibition (INH) (Aromatase [1]): Not Active
0.79	–	–	COCO[C@@H](c1ccccc1)[C@@H](Cn1ccnn1)c1ccccc1 (relative stereo)	Ki (Cytochrome P450 2D6): 1120 µM
–	–	Not Active	O[C@@H](c1ccccc1)[C@@H](Cn1ccnn1)c1ccccc1 (relative stereo)	–
0.1	Not Active	–	O=C(O[C@@H](c1ccccc1)[C@@H](Cn1ccnn1)c1ccccc1)c1ccccc1 (relative stereo)	Ki (Cytochrome P450 1A1): 30.9 µM
0.06	Not Active	–	CC(=O)O[C@@H](c1ccccc1)[C@@H](Cn1ccnn1)c1ccccc1 (relative stereo)	–
–	–	Not Active	COCO[C@@H](c1ccccc1)[C@@H](CN1CCOCC1)c1ccccc1 (relative stereo)	–
–	–	Not Active	COCO[C@@H](c1ccccc1)[C@@H](CN)c1ccccc1 (relative stereo)	–
–	–	Not Active	COCO[C@H](c1ccccc1)[C@@H](CN=[N+]=[N-])c1ccccc1 (relative stereo)	–
–	–	Not Active	COCO[C@H](c1ccccc1)[C@@H](Cn1cc([Si](C)(C)C)nn1)c1ccccc1 (relative stereo)	–
0.08	Not Active	–	COCO[C@H](c1ccccc1)[C@@H](Cn1ccnn1)c1ccccc1 (relative stereo)	–
0.05	Not Active	–	O[C@H](c1ccccc1)[C@@H](Cn1ccnn1)c1ccccc1 (relative stereo)	Ki (Cytochrome P450 2D6): 708 µM
0.25	Not Active	–	CC(=O)O[C@H](c1ccccc1)[C@@H](Cn1ccnn1)c1ccccc1 (relative stereo)	–
